# Assay results from US8138186B2, “Pyrazole derivatives as sigma receptors antagonists” (Laboratorios Del Dr. Esteve, S.A., priority 2006, dated 2012).
# Structures can show the parent of a compound that is named as a salt.
# Experiments:
# [1] = target: σ1-receptor (Cavia porcellus, UniProt Q60492); assay: σ1-receptor binding assay, [3H](+)-pentazocine, brain membranes; settings: [3H](+)-pentazocine 0.5 nM, guinea pig brain membranes; for % Binding σ1 10^−7M: compound 10^−7M; for % Binding σ1 10^−8M: compound 10^−8M
# Chain of σ1-receptor (Q60492 whole entry): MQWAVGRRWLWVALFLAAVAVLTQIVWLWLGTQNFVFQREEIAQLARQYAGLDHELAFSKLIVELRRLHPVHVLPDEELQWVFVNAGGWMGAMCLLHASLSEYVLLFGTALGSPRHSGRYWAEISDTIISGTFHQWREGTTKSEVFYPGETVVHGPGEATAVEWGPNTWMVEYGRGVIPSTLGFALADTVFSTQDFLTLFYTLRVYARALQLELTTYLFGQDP
# Method: Brain membrane preparation and binding assays for the σ1-receptor were performed as described (DeHaven-Hudkins et al., 1992) with some modifications. In brief, guinea pig brains were homogenized in 10 vols. (w/v) of Tris-HCl 50 mM 0.32 M sucrose, pH 7.4, with a Kinematica Polytron PT 3000 at 15000 r.p.m. for 30 s. The homogenate was centrifuged at 1000 g for 10 min at 4° C. and the supernatants collected and centrifuged again at 48000 g for 15 min at 4° C. The pellet was resuspended in 10 volumes of Tris-HCl buffer (50 mM, pH 7.4), incubated at 37° C. for 30 min, and centrifuged at 48000 g for 20 min at 4° C. Following this, the pellet was resuspended in fresh Tris-HCl buffer (50 mM, pH 7.4) and stored on ice until use.
# Each assay tube contained 10 μL of [^3H](+)-pentazocine (final concentration of 0.5 nM), 900 μL of the tissue suspension to a final assay volume of 1 mL and a final tissue concentration of approximately 30 mg tissue net weight/mL. […] All tubes were incubated at 37° C. for 150 min before termination of the reaction by rapid filtration over Schleicher & Schuell GF 3362 glass fibre filters [previously soaked in a solution of 0.5% polyethylenimine for at least 1 h]. Filters were then washed with four times with 4 mL of cold Tris-HCl buffer (50 mM, pH 7.4). Following addition of scintillation cocktail, the samples were allowed to equilibrate overnight. The amount of bound radioactivity was determined by liquid scintillation spectrometry using a Wallac Winspectral 1414 liquid scintillation counter.
# [2] = cited from earlier work
# [3] = target: sigma (σ-2) site (Homo sapiens, UniProt Q5BJF2); settings: cited from earlier work
# Chain of sigma (σ-2) site (Q5BJF2 whole entry): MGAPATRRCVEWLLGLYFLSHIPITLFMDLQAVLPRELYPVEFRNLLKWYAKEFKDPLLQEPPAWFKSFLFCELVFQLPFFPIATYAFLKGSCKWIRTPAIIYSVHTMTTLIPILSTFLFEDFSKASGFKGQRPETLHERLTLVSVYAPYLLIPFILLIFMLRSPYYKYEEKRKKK
# [4] = target: sigma 1 (σ-1) site (Homo sapiens, UniProt Q99720); settings: cited from earlier work
# Chain of sigma 1 (σ-1) site (Q99720 whole entry): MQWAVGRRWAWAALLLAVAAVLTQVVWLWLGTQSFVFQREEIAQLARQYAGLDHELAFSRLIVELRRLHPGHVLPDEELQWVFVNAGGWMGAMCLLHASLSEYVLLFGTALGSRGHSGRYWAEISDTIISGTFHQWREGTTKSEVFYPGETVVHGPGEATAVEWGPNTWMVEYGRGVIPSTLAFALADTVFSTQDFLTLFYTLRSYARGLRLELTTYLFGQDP
Compound,melting point [°C],% Binding σ1 10^−7M [1] [%],% Binding σ1 10^−8M [1] [%],further results
CN1CCN(CC(O)COc2ccn(-c3ccc(Cl)c(Cl)c3)n2)CC1.O=C(O)C(=O)O (stereo not shown),189 to 192,,,
"OC(COc1ccn(-c2ccc(Cl)c(Cl)c2)n1)CN1CCOCC1 (stereo not shown) [Example 1, 1-(1-(3,4-dichlorophenyl)-1H-pyrazol-3-yloxy)-3-morpholinopropan-2-ol oxalate]",,70.3,22.2,
"O=C(O)C(=O)O.OC(COc1ccn(-c2ccc(Cl)c(Cl)c2)n1)CN1CCCCC1 (stereo not shown) [Example 2, 1-(1-(3,4-dichlorophenyl)-1H-pyrazol-3-yloxy)-3-(piperidin-1-yl)propan-2-ol oxalate]",116 to 119,72.2,4.2,
"O=C(O)C(=O)O.OC(COc1ccn(-c2ccc(Cl)c(Cl)c2)n1)CN1CCCC1 (stereo not shown) [Example 3, 1-(1-(3,4-dichlorophenyl)-1H-pyrazol-3-yloxy)-3-(pyrrolidin-1-yl)propan-2-ol oxalate]",,55.9,32.6,
"Clc1ccc(-n2ccc(OCCOCCN3CCCCC3)n2)cc1Cl [Example 6, 1-(2-(2-(1-(3,4-dichlorophenyl)-1H-pyrazol-3-yloxy)ethoxy)ethyl)piperidine]",,82.8,23.7,
"Clc1ccc(-n2ccc(OCCOCCN3CCOCC3)n2)cc1Cl.O=C(O)C(=O)O [Example 7, 4-(2-(2-(1-(3,4-dichlorophenyl)-1H-pyrazol-3-yloxy)ethoxy)ethyl)morpholine oxalate]",154 to 156,61.6,25.8,
C[C@@H]1CN(CCCn2c3ccccc3c3ccccc32)C[C@H](C)N1 [rimcazole],,,,clinical effects in the treatment of psychosis [2]: shows effects in the treatment of psychosis
SKF 10047,,,,affinity for the sigma (σ-2) site [3]: micromolar affinity; affinity for the sigma 1 (σ-1) site [4]: nanomolar affinity
